Results taken from US10421778B2, “Isoform-selective lysine deacetylase inhibitors” (WASHINGTON UNIVERSITY, priority 2015, dated 2019).
Marks after values point to notes of the source that are not given here. Positions of bridges follow the written chain, without caps; N, C: chain ends. Non-standard residues stand in square brackets, D forms with d. Residues, ends and D or L forms follow the SMILES beside them.

Tests used:
Assay in all cases: KDAC inhibition assay, Caliper EZ Reader II
Assay type in all cases: biochemical
recombinant human KDAC1 = molecular target: T1, recombinant human KDAC1 (Homo sapiens, UniProt Q13547); settings: for KDAC Inhibition Activity KDAC1 (% inhibition): % inhibition at 30 μM
T1 construct: purchased BPS Bioscience
T1 sequence (Q13547 whole entry): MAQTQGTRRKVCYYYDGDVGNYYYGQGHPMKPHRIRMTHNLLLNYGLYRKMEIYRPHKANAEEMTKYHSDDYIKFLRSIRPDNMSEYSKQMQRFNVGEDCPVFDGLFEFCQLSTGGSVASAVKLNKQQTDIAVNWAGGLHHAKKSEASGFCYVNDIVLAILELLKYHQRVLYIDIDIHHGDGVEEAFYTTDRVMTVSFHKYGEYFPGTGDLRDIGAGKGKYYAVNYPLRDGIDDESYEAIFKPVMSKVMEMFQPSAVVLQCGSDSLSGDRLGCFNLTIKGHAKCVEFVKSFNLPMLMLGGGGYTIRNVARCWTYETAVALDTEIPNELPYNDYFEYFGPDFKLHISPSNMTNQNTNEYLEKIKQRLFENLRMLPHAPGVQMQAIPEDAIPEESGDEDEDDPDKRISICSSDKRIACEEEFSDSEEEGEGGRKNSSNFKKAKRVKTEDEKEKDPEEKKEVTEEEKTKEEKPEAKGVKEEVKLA

recombinant human KDAC3 = molecular target: T2, recombinant human KDAC3 (Homo sapiens, UniProt O15379); settings: for KDAC Inhibition Activity KDAC3 (% inhibition): % inhibition at 30 μM
T2 construct: purchased BPS Bioscience
T2 sequence (O15379 whole entry): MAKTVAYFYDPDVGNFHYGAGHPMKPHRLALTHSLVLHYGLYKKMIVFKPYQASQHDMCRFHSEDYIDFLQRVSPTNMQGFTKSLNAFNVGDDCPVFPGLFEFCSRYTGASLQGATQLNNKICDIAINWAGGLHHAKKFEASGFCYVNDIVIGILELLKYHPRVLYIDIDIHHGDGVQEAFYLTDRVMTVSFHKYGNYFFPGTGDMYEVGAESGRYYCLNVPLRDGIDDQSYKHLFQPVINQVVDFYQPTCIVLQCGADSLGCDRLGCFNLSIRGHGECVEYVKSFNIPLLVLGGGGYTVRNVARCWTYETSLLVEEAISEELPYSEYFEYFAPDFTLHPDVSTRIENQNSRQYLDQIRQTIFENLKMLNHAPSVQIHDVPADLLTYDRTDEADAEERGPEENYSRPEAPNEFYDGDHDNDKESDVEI
T2 sequence (Q9Y618 395-489 partner limits assumed): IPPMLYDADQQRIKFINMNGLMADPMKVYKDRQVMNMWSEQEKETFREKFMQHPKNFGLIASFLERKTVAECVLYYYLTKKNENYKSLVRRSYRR

recombinant human KDAC6 = molecular target: T3, recombinant human KDAC6 (Homo sapiens, UniProt Q9UBN7); settings: % inhibition at 30 μM
T3 construct: purchased BPS Bioscience
T3 sequence (Q9UBN7 1-1215): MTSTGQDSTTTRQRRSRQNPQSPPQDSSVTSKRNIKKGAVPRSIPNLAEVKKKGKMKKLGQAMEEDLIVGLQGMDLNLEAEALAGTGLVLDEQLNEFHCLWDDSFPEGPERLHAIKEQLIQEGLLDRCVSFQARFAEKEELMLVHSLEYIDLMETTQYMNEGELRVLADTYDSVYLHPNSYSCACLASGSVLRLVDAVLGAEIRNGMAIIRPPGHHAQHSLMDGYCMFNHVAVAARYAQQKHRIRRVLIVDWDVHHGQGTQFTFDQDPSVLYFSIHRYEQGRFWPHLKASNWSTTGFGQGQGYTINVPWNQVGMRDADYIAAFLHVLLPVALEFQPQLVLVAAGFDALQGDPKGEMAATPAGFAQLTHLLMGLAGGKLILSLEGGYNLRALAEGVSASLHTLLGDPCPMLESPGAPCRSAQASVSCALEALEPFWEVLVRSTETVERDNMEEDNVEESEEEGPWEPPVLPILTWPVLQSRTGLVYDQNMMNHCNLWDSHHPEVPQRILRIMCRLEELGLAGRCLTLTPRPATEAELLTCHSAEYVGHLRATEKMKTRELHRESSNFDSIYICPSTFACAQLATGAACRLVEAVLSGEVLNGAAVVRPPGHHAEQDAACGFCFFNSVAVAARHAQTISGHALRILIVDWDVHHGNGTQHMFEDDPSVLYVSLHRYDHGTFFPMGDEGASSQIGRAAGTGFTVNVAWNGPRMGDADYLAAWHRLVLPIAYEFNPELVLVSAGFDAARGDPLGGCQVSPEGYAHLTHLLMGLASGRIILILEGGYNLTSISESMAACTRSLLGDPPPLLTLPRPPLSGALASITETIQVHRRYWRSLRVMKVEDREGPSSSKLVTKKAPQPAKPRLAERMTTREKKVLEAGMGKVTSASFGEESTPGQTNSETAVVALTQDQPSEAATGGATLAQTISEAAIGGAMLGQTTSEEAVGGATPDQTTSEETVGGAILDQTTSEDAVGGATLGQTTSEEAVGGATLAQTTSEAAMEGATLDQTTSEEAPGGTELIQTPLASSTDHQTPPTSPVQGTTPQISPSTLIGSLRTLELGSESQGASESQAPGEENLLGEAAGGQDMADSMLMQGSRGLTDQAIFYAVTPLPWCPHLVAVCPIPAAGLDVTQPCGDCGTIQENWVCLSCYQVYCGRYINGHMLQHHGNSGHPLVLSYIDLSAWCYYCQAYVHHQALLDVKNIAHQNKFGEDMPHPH

recombinant human KDAC8 = molecular target: T4, recombinant human KDAC8 (Homo sapiens, UniProt Q9BY41); settings: % inhibition at 30 μM
T4 construct: purchased BPS Bioscience
T4 sequence (Q9BY41 1-377): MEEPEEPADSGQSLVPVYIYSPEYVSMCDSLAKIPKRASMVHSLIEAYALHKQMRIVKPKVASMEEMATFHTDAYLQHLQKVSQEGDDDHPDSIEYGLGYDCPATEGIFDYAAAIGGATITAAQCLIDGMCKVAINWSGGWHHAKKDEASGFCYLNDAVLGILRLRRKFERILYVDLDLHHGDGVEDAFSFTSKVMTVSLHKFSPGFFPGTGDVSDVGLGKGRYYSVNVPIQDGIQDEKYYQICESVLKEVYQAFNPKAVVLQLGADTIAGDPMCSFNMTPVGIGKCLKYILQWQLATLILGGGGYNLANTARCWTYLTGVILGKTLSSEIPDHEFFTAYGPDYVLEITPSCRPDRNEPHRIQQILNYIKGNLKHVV

Molecule	KDAC Inhibition Activity KDAC1 (% inhibition) (recombinant human KDAC1)	KDAC Inhibition Activity KDAC3 (% inhibition) (recombinant human KDAC3)	KDAC Inhibition Activity KDAC6 (% inhibition) (recombinant human KDAC6)	KDAC Inhibition Activity KDAC8 (% inhibition) (recombinant human KDAC8)	IC50 (recombinant human KDAC1; 10-point dose curve from 30 μM)	IC50 (recombinant human KDAC3; 10-point dose curve from 30 μM, read-out: KDAC Inhibition Activity (IC50) KDAC3)	inhibition at 30 µM (recombinant human KDAC3)	inhibition at 30 µM (recombinant human KDAC1)
Cyclo-Asp(^DPro-Pro-Val)-NHCH2CH2SH [Compound 5a]	Not active	Not active	14%	12%	–	–	–	–
Cyclo-^DAsp(^DPro-Pro-Val)-NHCH2CH2S—SCH2CH2NH2 [Compound 15b]	5%	7%	7%	Not active	–	–	–	–
Cyclo-^DAsp(^DPro-Pro-Val)-NHCH2CH2CH2NH2 [Compound 16b]	4.5%	14%^a	2%^a	22%^a	–	–	–	–
Cyclo-Asp(^DPro-Pro-Val)-NHCH2CH2S—SCH2CH2NHP(O)(OPh) [Compound 11a]	2.5%	10%	Not active	31%	–	–	–	–
Cyclo-^DAsp(^DPro-Pro-Val)-NHCH2CH2S—SCH2CH2NHP(O)(OPh) [Compound 11b]	Not active	4%	16%	10%	–	–	–	–
[Cyclo-^DAsp(^DPro-Pro-Val)-NHCH2CH2CH2S]2 [Compound 37b]	1%	53%	8%	–	–	–	–	–
Cyclo-Asp(^DPro-Pro-Val)-NHCH2CH2CH2S(═O)CH3 [Compound 8a]	Not active	Not active	Not active	30%	–	–	–	–
Cyclo-^DAsp(^DPro-Pro-Val)-NHCH2CH2CH2COOH [Compound 13b]	2.5%	Not active	Not active	Not active	–	–	–	–
Cyclo-Asp(^DPro-Pro-Val)-OBn [Compound 1a]	–	–	6%	9%	–	–	–	–
Cyclo-DAsp(Pro-DPro-Val)-OH [Compound 4b]	–	5%	10%	4%	–	–	–	–
Cyclo-^DAsp(^DPro-Pro-Val)-NHCH2CH2CH2COOMe [Compound 12b]	5%	Not active	Not active	Not active	–	–	–	–
Cyclo-Asp(^DPro-Pro-Val)-NHCH2CH2CH2NH2 [Compound 16a]	Not active	14%^a	2%^a	22%^a	–	–	–	–
Cyclo-Asp(Pro-^DPro-Val)-NHCH2CH2CH2S(═O)2CH3 [Compound 21a]	Not active	Not active	Not active	23%	–	–	–	–
Nc1ccccc1NC(=O)c1ccc(-c2cn(CCc3ccsc3)nn2)cc1 [Compound T247, N-(2-Aminophenyl)-4-[1-(2-thiophen-3-ylethyl)-1H-[1,2,3]triazol-4-yl]benzamide, reference compound]	–	–	–	–	1110 nM	3940 nM	–	–
Cyclo-^DAsp(Pro-^DPro-Val)-NHCH2CH2CH2CONHOH [Compound 25b]	Not active	13%	6%	31%	–	–	–	–
CC(C)[C@@H]1NC(=O)[C@@H]2CCCN2C(=O)[C@H]2CCCN2C(=O)C[C@@H](C(=O)O)NC1=O [Compound 3a, Cyclo-Asp(^DPro-Pro-Val)-OH] ([dP]PVD-OH; lactam N-4)	–	–	–	–	–	–	1%	–

Molecule	KDAC Inhibition Activity KDAC1 (% inhibition) (recombinant human KDAC1)	KDAC Inhibition Activity KDAC3 (% inhibition) (recombinant human KDAC3)	KDAC Inhibition Activity KDAC6 (% inhibition) (recombinant human KDAC6)	KDAC Inhibition Activity KDAC8 (% inhibition) (recombinant human KDAC8)	IC50 (recombinant human KDAC1; 10-point dose curve from 30 μM)	IC50 (recombinant human KDAC3; 10-point dose curve from 30 μM, read-out: KDAC Inhibition Activity (IC50) KDAC3)	inhibition at 30 µM (recombinant human KDAC3)	inhibition at 30 µM (recombinant human KDAC1)
Cyclo-Asp(Pro-^DPro-Val)-NHCH2CH2CH2OH [Compound 22a]	Not active	7%	Not active	Not active	–	–	–	–
Cyclo-^DAsp(^DPro-Pro-Val)-NHCH2CH2CH2SH [Compound 6b]	Not active	9%	Not active	8%	–	–	–	–
Cyclo-^DAsp(^DPro-Pro-Val)-NHCH2CH2CH2CONHOH [Compound 14b]	12.5%	27%	53%	21%	–	–	–	–
Cyclo-^DAsp(^DPro-Pro-Val)-NHCH2CH2CH2S(═O)2CH3 [Compound 9b]	4%	3%	1%	22%	–	–	–	–
Cyclo-^DAsp(^DPro-Pro-Val)-NHCH2CH2CH2SCH3 [Compound 7b]	1.5%	Not active	Not active	28%	–	–	–	–
Cyclo-^DAsp(Pro-^DPro-Val)-OBn [Compound 2b]	1.5%	1%	10%	–	–	–	–	–
[Cyclo-Asp(Pro-^DPro-Val)-NHCH2CH2CH2S]2 [Compound 38a]	–	10%	21%	–	–	–	–	–
Cyclo-Asp(Pro-^DPro-Val)-OH [Compound 4a]	–	24%	–	–	–	–	–	–
[Cyclo-DAsp(Pro-DPro-Val)-NHCH2CH2S]2 [Compound 36b]	–	–	4%	2%	–	–	–	–
[Cyclo-Asp(^DPro-Pro-Val)-NHCH2CH2CH2S]2 [Compound 37a]	–	–	9%	6%	–	–	–	–
[Cyclo-Asp(Pro-^DPro-Val)-NHCH2CH2S]2 [Compound 36a]	–	–	–	2%	–	–	–	–
[Cyclo-Asp(^DPro-Pro-Val)-NHCH2CH2S]2 [Compound 35a]	–	2%	–	–	–	–	–	–
Cyclo-Asp(Pro-^DPro-Val)-OBn [Compound 2a]	–	–	–	14%	–	–	–	–
[Cyclo-^DAsp(Pro-^DPro-Val)-NHCH2CH2CH2S]2 [Compound 38b]	–	19%	40%	3%	–	–	–	–
[Cyclo-^DAsp(^DPro-Pro-Val)-NHCH2CH2S]2 [Compound 35b]	–	–	6%	9%	–	–	–	–
CC(C)[C@@H]1NC(=O)[C@@H]2CCCN2C(=O)[C@H]2CCCN2C(=O)C[C@H](C(=O)O)NC1=O [Compound 3b, Cyclo-^DAsp(^DPro-Pro-Val)-OH] ([dP]PV[dD]-OH; lactam N-4)	–	–	–	–	–	–	3%	2.5%
